Reference: ChEMBL document CHEMBL4130457, “Discovery of AZD-2098 and AZD-1678, Two Potent and Bioavailable CCR4 Receptor Antagonists” (ACS Med Chem Lett, 2017)
The source made the active and inactive calls. The rule behind the calls is not given here.

Tests used:
[1] = molecular target: T1, C-C chemokine receptor type 4 (Homo sapiens) (UniProt P51679); experiment: Agonist activity at CCR4 (unknown origin) up to 10 uM; format: functional
T1 sequence (whole entry): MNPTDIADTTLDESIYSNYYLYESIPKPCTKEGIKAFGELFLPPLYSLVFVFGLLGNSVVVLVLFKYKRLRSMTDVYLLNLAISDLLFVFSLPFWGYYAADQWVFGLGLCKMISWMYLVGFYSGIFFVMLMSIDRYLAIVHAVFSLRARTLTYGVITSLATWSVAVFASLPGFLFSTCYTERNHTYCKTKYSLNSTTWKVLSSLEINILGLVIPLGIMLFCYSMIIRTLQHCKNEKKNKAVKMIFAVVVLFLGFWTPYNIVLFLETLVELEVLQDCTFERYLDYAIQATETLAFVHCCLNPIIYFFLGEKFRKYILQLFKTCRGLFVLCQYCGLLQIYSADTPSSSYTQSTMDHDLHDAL

[2] = Protein binding in human plasma; format: ADME, cell-free; conditions: read-out: PPB (converted)
[3] = Volume of distribution at steady state in dog at 9 umol/kg, po or 3 umol/kg, iv; format: ADME, organism-based, Canis lupus familiaris; conditions: in vivo, read-out: Vdss
[4] = Half life in dog at 9 umol/kg, po or 3 umol/kg, iv; format: ADME, organism-based, Canis lupus familiaris; conditions: in vivo
[5] = Terminal trough concentration in OVA-induced Brown Norway rat plasma at 7.5 umol/kg, po bid measured 12 hrs post last dose; format: ADME, organism-based; conditions: read-out: Cmin
[6] = molecular target: T2, C-C chemokine receptor type 7 (Homo sapiens) (UniProt P32248); experiment: Antagonist activity at CCR7 (unknown origin) at 10 uM; format: functional
T2 sequence (whole entry): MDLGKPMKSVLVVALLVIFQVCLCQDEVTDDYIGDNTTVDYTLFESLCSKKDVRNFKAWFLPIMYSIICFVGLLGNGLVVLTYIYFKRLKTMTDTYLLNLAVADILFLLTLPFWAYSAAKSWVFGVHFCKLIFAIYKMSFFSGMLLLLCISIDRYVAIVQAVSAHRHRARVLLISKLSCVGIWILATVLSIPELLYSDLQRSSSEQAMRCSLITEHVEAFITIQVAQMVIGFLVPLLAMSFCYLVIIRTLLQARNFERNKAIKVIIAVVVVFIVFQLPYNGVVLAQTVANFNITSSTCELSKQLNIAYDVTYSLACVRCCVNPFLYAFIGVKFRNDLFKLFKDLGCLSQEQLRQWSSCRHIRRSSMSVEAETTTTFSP

[7] = Ratio of free plasma concentration in Brown Norway rat at 3 umol/kg to pIC50 for recombinant human CCR4 expressed in CHO-K1 cells; format: ADME, cell-based; conditions: in vivo
[8] = molecular target: T3, C-C chemokine receptor type 4 (Canis lupus familiaris, UniProt Q8MJW8); experiment: Antagonist activity at dog CCR4
T3 sequence (Q8MJW8 whole entry): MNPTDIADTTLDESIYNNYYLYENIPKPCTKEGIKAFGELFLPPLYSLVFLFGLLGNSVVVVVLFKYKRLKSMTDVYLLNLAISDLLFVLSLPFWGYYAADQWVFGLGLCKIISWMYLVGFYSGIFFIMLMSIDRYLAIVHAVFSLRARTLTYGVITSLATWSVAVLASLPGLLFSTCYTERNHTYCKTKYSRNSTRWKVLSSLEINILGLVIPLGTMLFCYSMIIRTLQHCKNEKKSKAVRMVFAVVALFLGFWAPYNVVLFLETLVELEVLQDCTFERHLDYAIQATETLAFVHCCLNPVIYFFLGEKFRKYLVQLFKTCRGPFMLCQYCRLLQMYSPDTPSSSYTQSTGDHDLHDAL

[9] = Ratio of free plasma concentration in Brown Norway rat at 15 umol/kg to pIC50 for recombinant human CCR4 expressed in CHO-K1 cells; format: ADME, cell-based; conditions: in vivo
[10] = Lipophilicity, log D of the compound; format: physicochemical; conditions: octanol/water
[11] = molecular target: T4, C-X-C chemokine receptor type 1 (Homo sapiens) (UniProt P25024); experiment: Antagonist activity at CXCR1 (unknown origin) at 10 uM; format: functional
T4 sequence (whole entry): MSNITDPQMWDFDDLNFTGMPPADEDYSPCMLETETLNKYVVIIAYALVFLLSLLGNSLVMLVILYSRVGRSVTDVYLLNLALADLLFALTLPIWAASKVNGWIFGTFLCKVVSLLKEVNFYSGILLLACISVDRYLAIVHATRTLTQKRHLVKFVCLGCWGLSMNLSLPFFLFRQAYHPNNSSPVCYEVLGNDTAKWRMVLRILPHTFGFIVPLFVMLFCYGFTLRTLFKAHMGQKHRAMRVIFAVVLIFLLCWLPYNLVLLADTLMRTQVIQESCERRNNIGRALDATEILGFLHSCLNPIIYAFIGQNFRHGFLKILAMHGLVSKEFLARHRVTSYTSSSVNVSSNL

## COc1nccnc1NS(=O)(=O)c1cccc(Cl)c1Cl
[1]
  Activity: inactive
[2]
  fraction unbound: 0.011
[3]
  Vd: 0.1 L/kg
[4]
  half-life: 1 h
[5]
  concentration at 12 h: 140 nM
[6]
  Activity: inactive
[7]
  Ratio: 0.6
[8]
  IC50: 25.1 nM
[9]
  Ratio: 9
[10]
  logD: 0.35
[11]
  Activity: inactive
